In paper PMC5840146, “Structure-Activity Relationship Analysis of 3-Phenylcoumarin-Based Monoamine Oxidase B Inhibitors” (Frontiers in Chemistry, 2018):
Values joined by “and” are separate entries in the source; they are usually repeats but may differ in a detail not shown here. Equal values may be shown once.

Legend:
[1] = target: T1, human CYP1A2 (Homo sapiens, UniProt P05177); experiment: CYP1A2 inhibition, 7-ethoxyresorufin fluorescence assay; type: biochemical
T1 construct: purchased Corning Inc
T1 sequence (P05177 1-516): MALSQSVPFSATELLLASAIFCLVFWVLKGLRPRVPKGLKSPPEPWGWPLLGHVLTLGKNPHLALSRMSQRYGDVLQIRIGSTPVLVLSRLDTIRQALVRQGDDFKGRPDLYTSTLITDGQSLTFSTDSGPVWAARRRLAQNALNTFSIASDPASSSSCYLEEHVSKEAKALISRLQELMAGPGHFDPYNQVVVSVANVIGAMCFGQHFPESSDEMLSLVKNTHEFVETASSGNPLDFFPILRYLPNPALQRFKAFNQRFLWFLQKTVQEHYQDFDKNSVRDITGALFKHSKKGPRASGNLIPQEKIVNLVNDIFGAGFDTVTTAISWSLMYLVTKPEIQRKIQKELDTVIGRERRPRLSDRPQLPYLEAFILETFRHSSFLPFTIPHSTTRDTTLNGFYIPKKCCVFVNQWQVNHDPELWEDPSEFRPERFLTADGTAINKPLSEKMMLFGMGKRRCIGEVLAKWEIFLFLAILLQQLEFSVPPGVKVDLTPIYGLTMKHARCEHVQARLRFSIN
Experimental: Inhibition of CYP1A2 activity was determined with commercial heterologously expressed human CYP1A2 enzyme (Corning Inc., Corning, NY, USA) as described earlier (Korhonen et al., [2005]). The metabolic activity was not in the scope of this particular study. The assay was adapted to the 96-well plate format. In each well, a 150 μL incubation volume contained 100 mM Tris-HCl buffer (pH 7.4), 4.2 mM MgCl2,1 μM 7-ethoxyresorufin, 0.5 pmol of cDNA expressed CYP1A2, […] inhibitor, and a NADPH-generating system. All inhibitors were dissolved in ethanol, and the final concentration of ethanol was 2% in all incubations. The reaction was initiated by adding the NADPH-regenerating system after a 10 min preincubation at 37°C, and after a 20 min incubation, the reaction was terminated by the addition of 110 μL of 80% acetonitrile/20% 0.5 M Tris base. The formed fluorescence was measured with a Victor2 plate counter (Perkin-Elmer Life Sciences Wallac, Turku, Finland) at 570 nm excitation and 616 nm emission.

[2] = target: T2, MAO-B (Homo sapiens, UniProt P27338); experiment: continuous spectrophotometric MAO-B inhibition assay; type: biochemical; conditions: for LiPE: LiPE = pIC50 - QPlogPo/w, new analogs and pargyline; for IC50: dilution series 50 μM to 1 nM, duplicates, read-out: MAO-B inhibition IC50; for MAO-B inhibition %: 10 µM, 2h
T2 construct: purchased Sigma-Aldrich
T2 sequence (P27338 1-520): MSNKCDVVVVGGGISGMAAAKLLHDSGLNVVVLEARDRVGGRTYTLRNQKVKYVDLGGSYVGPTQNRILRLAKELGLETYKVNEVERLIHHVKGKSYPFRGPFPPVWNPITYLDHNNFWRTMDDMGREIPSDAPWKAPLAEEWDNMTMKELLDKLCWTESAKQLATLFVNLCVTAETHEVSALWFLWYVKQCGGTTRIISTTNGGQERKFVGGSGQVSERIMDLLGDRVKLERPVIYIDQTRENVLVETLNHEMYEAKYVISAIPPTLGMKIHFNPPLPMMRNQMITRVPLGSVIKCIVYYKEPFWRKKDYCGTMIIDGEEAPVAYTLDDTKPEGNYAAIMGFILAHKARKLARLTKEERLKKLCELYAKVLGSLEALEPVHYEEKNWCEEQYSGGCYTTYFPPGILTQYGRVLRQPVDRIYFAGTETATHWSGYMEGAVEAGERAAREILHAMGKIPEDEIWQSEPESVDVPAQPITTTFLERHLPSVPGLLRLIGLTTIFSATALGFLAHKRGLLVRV
Experimental: Both monoamine oxidase A (MAO-A) and B (MAO-B) protein and the reagents for the chromogenic solution of vanillic acid (4-hydroxy-3-methoxylbenzoic acid, 97% purity), 4-aminoantipyrine (reagent grade), horseradish peroxidase and the substrate tyramine hydrochloride (minimum 99% purity) as well as the potassium phosphate buffer, which was prepared using potassium phosphate dibasic trihydrate (≥99% ReagentPlus™) and potassium phosphate monobasic (minimum 98% purity, molecular biology tested), were purchased from Sigma-Aldrich (St. Louis, MO, USA) for the spectrophotometric assay.
The protocol for continuous spectrophotometric assay (Holt et al., [1997]) was followed in the activity measurements. The assay was performed in 0.2 M potassium phosphate buffer pH 7.6 on 96-well plates (Nunc™ 96F microwell plate without a lid, Nunc A/S, Roskilde, DK) in 200 μl total volume. The chromogenic solution containing 1 mM vanillic acid, 500 μM 4-aminoantipyrine and 8 U/ml horseradish peroxidase in 0.2 M potassium phosphate buffer pH 7.6 was mixed anew for each measurement. 5 mM tyramine solution was used as the substrate. In order to determine the activity of both MAO-B and MAO-A, concentration series as duplicates were prepared. The protein was combined with the chromogenic solution and incubated 30 min at 37°C. The background signal was measured using multilabel reader (Victor^TM X4, 2030 Multilabel Reader, PerkinElmer, Waltham, MA, USA) at A490 before reaching the total 200 μl volume by adding 20 μl of tyramine to final concentration of 0.5 mM on the plate. As a result, the final concentration of the chromogenic solution on the plate was 250 μM vanillic acid, 125 μM 4-aminoantipyrine and 2 U/ml horseradish peroxide. After adding the substrate, the plates were measured 300 times every 15 s using 1 s exposure time. The device was set to 37°C for the duration of the experiment.
The experiment conditions should produce absorbance change of ~0.35 (Holt et al., [1997]). […] The same wide panel of coumarin derivatives was additionally used to analyze the MAO-A inhibition at 100 μM (Table 1, Supplementary Table S1).
The measured data was then fitted on a curve using non-linear regression with the equation for log[inhibitor] vs. response. The IC50 values were therefore determined based on the curve fit. The fitted curves are shown on –log scale in Supplementary Figures S1, S2.

SMILES | IC50 [1] [µM] | inhibition at 10 µM [2] [%] | LiPE [2] | IC50 [2] | MAO-B inhibition % [2] [%] | MAO-B inhibition (in words) [2]
O=c1oc2cc(O)ccc2cc1-c1ccc(O)cc1 [derivative 30] | 22 |  |  |  | 52.68 | 
Cc1ccc2oc(=O)c(-c3ccc(C(F)(F)F)cc3)cc2c1 [derivative 5, 6-methyl-3-(4-(trifluoromethyl)phenyl)-2H-chromen-2-one] | 171 | 105 | 2.11 | 0.343 µM |  | 
Cc1ccc2oc(=O)c(-c3ccc(F)cc3)cc2c1 [derivative 23, 3-(4-fluorophenyl)-6-methyl-2H-chromen-2-one] | 3 | 83.5 | 2.46 | 0.902 µM |  | 
O=c1oc2cc(O)ccc2cc1-c1ccc(F)cc1 [derivative 39] | 240 |  |  |  | 26.44 | 
O=c1oc2cc(O)ccc2cc1-c1ccccc1 [derivative 41] | 8 |  |  |  | 23.82 | activity is lost
CC(=O)Oc1ccc2cc(-c3ccc(F)cc3)c(=O)oc2c1 [derivative 28] | 114 |  |  |  | 59.20 | 
O=c1oc2ccc(O)cc2cc1-c1ccc(F)cc1 [derivative 24, 3-(4-fluorophenyl)-6-hydroxy-2H-chromen-2-one] | 3 | 89.1 | 3.37 | 1.06 µM |  | 
COc1ccc(-c2cc3ccc(O)cc3oc2=O)cc1 [derivative 12, 7-hydroxy-3-(4-methoxyphenyl)-2H-chromen-2-one] | 170 | 85.9 | 3.53 | 0.955 µM |  | 
Cc1ccc(-c2cc3ccc(O)cc3oc2=O)cc1 [derivative 27] | 180 |  |  |  | 61.91 | 
O=c1oc2ccccc2cc1-c1ccc(O)cc1 [derivative 29] | 26 |  |  |  | 53.65 | 
COc1ccc2cc(-c3cc(F)c(F)cc3F)c(=O)oc2c1 [derivative 16, 7-methoxy-3-(2,4,5-trifluorophenyl)-2H-chromen-2-one] | 4.5 | 77.6 | 2.13 | 1.43 µM |  | 
O=c1oc2ccc(O)cc2cc1-c1ccc(O)cc1 [derivative 48] | 33 |  |  |  | 15.50 | 
COc1ccc2oc(=O)c(-c3cc(F)c(F)cc3F)cc2c1 [derivative 15, 6-methoxy-3-(2,4,5-trifluorophenyl)-2H-chromen-2-one] | 3 | 87.2 | 2.80 | 0.292 µM |  | 

Results, then the molecule that gave them:

IC50 [1] [µM] | inhibition at 10 µM [2] [%] | LiPE [2] | IC50 [2] | MAO-B inhibition % [2] [%] | MAO-B inhibition (in words) [2] | SMILES
2.3 | 112 | 3.53 | ~0.23 µM and 0.23 µM and 0.231 µM |  |  | COc1cccc(-c2cc3cc(OC)ccc3oc2=O)c1 [derivative 8, 6-methoxy-3-(3-methoxyphenyl)-2H-chromen-2-one]
86 |  |  |  | 47.64 |  | COc1ccc(-c2cc3cccc(O)c3oc2=O)cc1 [derivative 33]
30 | 101 | 3.70 | 0.391 µM |  |  | COc1ccc2cc(-c3ccc(O)c(F)c3)c(=O)oc2c1 [derivative 20, 3-(3-fluoro-4-hydroxyphenyl)-7-methoxy-2H-chromen-2-one]
17 | 93.9 | 2.72 | 0.617 µM |  |  | COc1ccc2oc(=O)c(-c3ccc(N(C)C)cc3)cc2c1 [derivative 18, 3-(4-(dimethylamino)phenyl)-6-methoxy-2H-chromen-2-one]
1.5 | 94.9 | 3.35 | 0.831 µM |  |  | COc1ccc2oc(=O)c(-c3ccc(O)c(F)c3)cc2c1 [derivative 22, 3-(3-fluoro-4-hydroxyphenyl)-6-methoxy-2H-chromen-2-one]
3 | 88.8 | 3.04 | 0.433 µM |  |  | COc1ccc2oc(=O)c(-c3ccc(F)cc3)cc2c1 [derivative 21, 3-(4-fluorophenyl)-6-methoxy-2H-chromen-2-one]
7 |  |  |  | 49.60 |  | O=c1oc2ccccc2cc1-c1cccc(O)c1 [derivative 31]
1.6 | 90.3 | 3.04 | 0.798 µM |  |  | COc1cccc(-c2cc3ccccc3oc2=O)c1 [derivative 11, 3-(3-methoxyphenyl)-2H-chromen-2-one]
240 |  |  |  | 19.73 |  | COc1ccc2oc(=O)c(-c3ccc(Oc4ccc(F)cc4)cc3)cc2c1 [derivative 46]
24 |  |  |  | 27.16 |  | O=c1oc2ccc(O)cc2cc1-c1cccc(O)c1 [derivative 38]
26 |  |  |  | 41.12 |  | COc1ccc(-c2cc3ccccc3oc2=O)cc1 [derivative 36]
35 |  |  |  | 67.49 |  | COc1cccc(-c2cc3ccc(OC)cc3oc2=O)c1 [derivative 25]
